≈ marks a conversion by molar mass, not a printed value. Where “and” joins values, the source holds several entries; their conditions need not be identical. Equal values may be shown once.
What was measured:
[1] = literature / background; cited from earlier work
cancer cells = conditions: literature; cited from earlier work
[2] = system: mouse leukemic cells P388/S; experiment: In vitro cancer cell proliferation inhibition (Trypan Blue living cell count, 2 days culture); format: cell-based; conditions: three separate experiments
Description: (§1) Test example 1: In vitro cancer cell proliferation inhibiting text
(§2) Mouse leukemic cells p388/S and adriamycin-resistant mouse leukemic cells P388/ADR subculturally transplanted in the abdominal cavity of mice were taken out together with the asites therefrom, respectively, and after washing, suspended in RPMI 1640 media (each containing 10% fetal bovine serum and 10 μM 2-mercaptoethanol) to 2×10^5 cells/ml, respectively. 0.5 vol. % each of test solutions (solutions of the compound of the later-described in Example 1 in dimethylsulfoxide) were added to portions of each of these cell suspensions, respectively; and the mixtures were separately put into a 24-well culture plate and subjected to culture for 2 days in a 5% carbon dioxide culturing vessel. A 0.5% Trypan Blue solution was added to each of the cell culture broths in the same amount, and the 50% proliferation inhibitory concentration (IC50) of the compound of Example 1 was determined by counting the number of the cells not stained as living cells under a microscope.

[3] = system: adriamycin-resistant mouse leukemic cells P388/ADR; experiment: as above; format: cell-based; conditions: three separate experiments
Description: as §1, §2

CDF male mice = experiment: Acute toxicity test (intraperitoneal, 10 days observation); format: in vivo, mouse; conditions: i.p.
Text: Test example 2: Acute toxicity test

SMILES: COc1cc2c(c(OC)c1OC)-c1ccc(OC)c(=O)cc1C(NC(C)=O)CC2 (stereo not shown) [colchicine]
- toxicity [1]: strong toxicity
- pharmacological actions on cancer cells (cancer cells): has pharmacological actions on cancer cells, gout, etc.

SMILES: CNc1ccc2c(cc1=O)C(NC(=O)C1COC(C)(C)O1)CCc1cc(OC)c(OC)c(OC)c1-2 (stereo not shown) [Example 1, N-(O,O-isopropylideneglyceroyl)-N-methyldeacetylcolchiceinamide]
- IC50 ([2]; Mus musculus, 48 h, read-out: Cytotoxicity IC50 (50% proliferation inhibitory concentration)): 3.2 ng/mL (≈ 0.0066 µM)
- Cytotoxicity IC50 (50% proliferation inhibitory concentration) ([2]; 2880 min): 4.2 ng/mL and 4.6 ng/mL
- IC50 ([3]; Mus musculus, P388/ADR, 48 h, read-out: Cytotoxicity IC50 (50% proliferation inhibitory concentration)): 9.2 ng/mL (≈ 0.019 µM)
- Cytotoxicity IC50 (50% proliferation inhibitory concentration) ([3]; 2880 min): 11.0 ng/mL and 11.1 ng/mL
- acute toxicity symptoms: diarrhea or constipation (CDF male mice; groups of high dose): cases where diarrhea or constipation arose were observed
- acute toxicity symptoms: lie of hair (CDF male mice; on and after one day after administration): the lie of hair got worse
- acute toxicity symptoms: walking problems and paralysis (CDF male mice; survival cases in the 47 mg/kg administration group): walking problems as in the right leg and paralysis of one side of the body
- body weight change (CDF male mice; up to 2 to 4 days after administration and thereafter): tended to decrease up to 2 to 4 days after administration, but thereafter increased gradually
